Drawing on paper PMC3445516 (PLoS ONE, 2012), this text covers competition and inhibition for three compounds.

Each structure is given as a SMILES string. Read-outs that look alike come from different tables or passages of the source. Where only a bound is given, the exact number is not on record here.

Common to all, as to assay: Ambit kinase profiling, competition binding
For one assay, the target named is T1, CAMKIIγ (Homo sapiens, UniProt Q13555).
T1 construct: purchased Ambit Biosciences (KINOMEscan)
T1 sequence (Q13555 whole entry): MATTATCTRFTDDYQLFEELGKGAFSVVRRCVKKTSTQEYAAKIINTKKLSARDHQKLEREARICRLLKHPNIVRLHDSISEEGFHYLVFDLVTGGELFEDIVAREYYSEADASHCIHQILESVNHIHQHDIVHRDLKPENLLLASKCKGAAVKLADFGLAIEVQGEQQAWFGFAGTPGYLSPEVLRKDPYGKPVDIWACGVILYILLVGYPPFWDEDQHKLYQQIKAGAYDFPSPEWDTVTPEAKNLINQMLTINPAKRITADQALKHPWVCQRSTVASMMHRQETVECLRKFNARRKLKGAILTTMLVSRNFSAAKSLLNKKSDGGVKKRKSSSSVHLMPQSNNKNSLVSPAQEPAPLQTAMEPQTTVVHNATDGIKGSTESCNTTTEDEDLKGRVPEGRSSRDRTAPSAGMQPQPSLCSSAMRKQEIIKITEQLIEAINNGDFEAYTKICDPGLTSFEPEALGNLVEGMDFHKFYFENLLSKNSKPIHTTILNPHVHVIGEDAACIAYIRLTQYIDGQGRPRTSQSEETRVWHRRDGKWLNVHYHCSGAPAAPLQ
The settings on record: for competition: CAMKIIγ, 10 µM. As for the experimental part: (§1) Also included in the kinase profile are four isoforms of PKC (δ, ε, η, θ) and eight isoforms of CAMKs (CAMKIα, δ, γ; CAMKIIα, β, δ, γ; CAMK4).
(§2) The global kinase profiling experiment was performed by Ambit Biosciences.

A further assay concerns the target T2, CDC2L2 (Homo sapiens, UniProt Q9UQ88).
T2 construct: purchased Ambit Biosciences (KINOMEscan)
T2 sequence (Q9UQ88 1-783): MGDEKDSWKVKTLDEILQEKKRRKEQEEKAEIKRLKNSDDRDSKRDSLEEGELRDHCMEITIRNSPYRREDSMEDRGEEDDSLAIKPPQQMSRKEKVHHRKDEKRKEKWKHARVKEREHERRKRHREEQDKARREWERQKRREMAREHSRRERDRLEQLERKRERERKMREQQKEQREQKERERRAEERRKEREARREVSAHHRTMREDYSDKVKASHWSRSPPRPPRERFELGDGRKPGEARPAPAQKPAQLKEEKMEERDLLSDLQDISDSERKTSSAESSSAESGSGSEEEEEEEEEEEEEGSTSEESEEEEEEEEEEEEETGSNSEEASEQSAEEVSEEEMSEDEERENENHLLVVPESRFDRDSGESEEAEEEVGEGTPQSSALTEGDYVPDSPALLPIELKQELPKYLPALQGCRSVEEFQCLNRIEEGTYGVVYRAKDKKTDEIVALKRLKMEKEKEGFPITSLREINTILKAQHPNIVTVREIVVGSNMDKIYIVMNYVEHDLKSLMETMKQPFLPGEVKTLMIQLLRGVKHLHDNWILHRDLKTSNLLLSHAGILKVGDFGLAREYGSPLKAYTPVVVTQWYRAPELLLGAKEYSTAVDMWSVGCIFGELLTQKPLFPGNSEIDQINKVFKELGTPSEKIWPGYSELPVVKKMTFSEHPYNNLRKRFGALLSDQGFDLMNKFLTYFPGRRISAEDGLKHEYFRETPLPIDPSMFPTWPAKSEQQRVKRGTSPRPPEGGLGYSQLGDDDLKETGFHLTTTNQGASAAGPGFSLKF
As for the experimental part:
as §1, §2

Another assay addresses T3, CDK7 (Homo sapiens, UniProt P50613).
T3 construct: purchased Ambit Biosciences (KINOMEscan)
As for the experimental part:
as §1, §2

A further assay concerns the target T4, ERK3 (Homo sapiens, UniProt Q16659).
T4 construct: purchased Ambit Biosciences (KINOMEscan)
As for the experimental part: as §1, §2

The target in another assay is T5, IRAK3 (Homo sapiens, UniProt Q9Y616).
T5 construct: purchased Ambit Biosciences (KINOMEscan)
T5 sequence (Q9Y616 1-596): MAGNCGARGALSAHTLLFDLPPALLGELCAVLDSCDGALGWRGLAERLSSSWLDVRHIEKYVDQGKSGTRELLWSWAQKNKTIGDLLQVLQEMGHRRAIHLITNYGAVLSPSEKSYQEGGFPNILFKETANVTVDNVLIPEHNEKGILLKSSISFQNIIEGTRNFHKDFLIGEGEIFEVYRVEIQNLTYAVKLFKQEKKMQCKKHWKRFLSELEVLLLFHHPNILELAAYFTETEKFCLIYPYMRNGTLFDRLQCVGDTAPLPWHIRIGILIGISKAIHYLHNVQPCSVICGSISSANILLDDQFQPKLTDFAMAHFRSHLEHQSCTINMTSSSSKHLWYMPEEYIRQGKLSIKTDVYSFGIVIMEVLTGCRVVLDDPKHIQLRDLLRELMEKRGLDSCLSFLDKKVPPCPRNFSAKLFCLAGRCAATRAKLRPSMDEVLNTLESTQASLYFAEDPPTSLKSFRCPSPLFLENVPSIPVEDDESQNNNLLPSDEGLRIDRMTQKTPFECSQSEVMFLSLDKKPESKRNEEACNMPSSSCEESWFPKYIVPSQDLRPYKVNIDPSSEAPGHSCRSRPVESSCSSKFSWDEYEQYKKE
As for the experimental part: as §1, §2

The target in another assay is T6, PHKG2 (Homo sapiens, UniProt P15735).
T6 construct: purchased Ambit Biosciences (KINOMEscan)
T6 sequence (P15735 1-406): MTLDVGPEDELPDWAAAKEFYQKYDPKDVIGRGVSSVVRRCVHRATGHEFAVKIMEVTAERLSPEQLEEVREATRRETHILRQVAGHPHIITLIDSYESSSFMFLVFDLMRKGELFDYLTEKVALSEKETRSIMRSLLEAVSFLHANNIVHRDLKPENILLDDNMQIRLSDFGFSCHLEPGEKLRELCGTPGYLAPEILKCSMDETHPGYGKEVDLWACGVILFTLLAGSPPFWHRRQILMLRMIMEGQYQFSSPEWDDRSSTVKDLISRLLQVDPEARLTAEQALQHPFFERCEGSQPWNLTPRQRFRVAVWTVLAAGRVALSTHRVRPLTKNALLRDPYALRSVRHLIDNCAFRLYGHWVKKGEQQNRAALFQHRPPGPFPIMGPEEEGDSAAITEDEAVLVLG
As for the experimental part: as §1, §2

T4 sequence (Q16659 whole entry): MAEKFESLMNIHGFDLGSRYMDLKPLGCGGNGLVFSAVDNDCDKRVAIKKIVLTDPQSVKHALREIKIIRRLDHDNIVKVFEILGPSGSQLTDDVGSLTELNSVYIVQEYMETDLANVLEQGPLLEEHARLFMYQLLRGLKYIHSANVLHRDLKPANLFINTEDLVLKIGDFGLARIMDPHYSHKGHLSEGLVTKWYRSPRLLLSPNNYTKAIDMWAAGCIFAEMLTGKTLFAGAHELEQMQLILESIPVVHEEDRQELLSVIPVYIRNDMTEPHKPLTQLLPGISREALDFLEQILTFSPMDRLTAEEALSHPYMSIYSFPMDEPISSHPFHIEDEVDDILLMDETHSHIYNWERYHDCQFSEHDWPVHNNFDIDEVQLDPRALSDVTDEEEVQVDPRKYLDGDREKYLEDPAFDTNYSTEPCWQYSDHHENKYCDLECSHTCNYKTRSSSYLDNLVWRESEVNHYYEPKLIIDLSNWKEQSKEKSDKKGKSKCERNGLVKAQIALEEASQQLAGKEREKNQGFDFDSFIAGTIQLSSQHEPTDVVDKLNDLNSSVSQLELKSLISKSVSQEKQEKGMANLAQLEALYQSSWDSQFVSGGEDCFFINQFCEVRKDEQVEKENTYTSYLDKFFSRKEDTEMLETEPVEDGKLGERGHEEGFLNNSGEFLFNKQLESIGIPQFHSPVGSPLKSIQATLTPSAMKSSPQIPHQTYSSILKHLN
T3 sequence (P50613 whole entry): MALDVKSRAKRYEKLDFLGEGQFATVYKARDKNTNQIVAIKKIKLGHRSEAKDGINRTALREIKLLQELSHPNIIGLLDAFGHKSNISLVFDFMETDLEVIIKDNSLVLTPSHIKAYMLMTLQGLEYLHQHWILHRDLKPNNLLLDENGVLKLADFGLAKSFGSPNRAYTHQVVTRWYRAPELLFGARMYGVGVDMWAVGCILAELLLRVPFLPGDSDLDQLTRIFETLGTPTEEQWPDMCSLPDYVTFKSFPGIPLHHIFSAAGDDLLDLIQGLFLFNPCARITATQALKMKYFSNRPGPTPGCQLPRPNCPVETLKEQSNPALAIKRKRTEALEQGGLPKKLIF

The compound `Fc1ccc(-c2c(-c3ccncc3)[nH]c3nccnc23)cc1` [Compound 122] returned a competition on CAMKIIγ below 50%. Besides, the inhibition at 10 µM was 92% at CDC2L2 (CDC2L2, 10 µM, read-out: % Competition); 100% on CDK7 (CDK7, 10 µM, read-out: % Competition); 98% at ERK3 (ERK3, 10 µM, read-out: % Competition); 75% at IRAK3 (IRAK3, 10 µM, read-out: % Competition); 91% on PHKG2 (PHKG2, 10 µM, read-out: % Competition).

In turn, `CC(O)CNc1cc(-c2[nH]c3cccnc3c2-c2ccc(F)cc2)ccn1` (stereo not drawn) [Compound 140] came in with a competition on CAMKIIγ below 50%. The inhibition at 10 µM at CDC2L2 (read-out: % Competition), on CDK7 (read-out: % Competition), on ERK3 (read-out: % Competition), at IRAK3 (read-out: % Competition) and at PHKG2 (read-out: % Competition) was below 50% throughout.

For `Fc1ccc(-c2c(-c3ccncc3)[nH]c3nccnc23)cc1` [RO1155697-000-005], the inhibition at 10 µM is below 50% at CAMKIIγ (CAMK2G, compound concentration 10 uM, read-out: Percent Competition); 92% at CDC2L2 (CDC2L2, compound concentration 10 uM, read-out: Percent Competition); 100% on CDK7 (CDK7, compound concentration 10 uM, read-out: Percent Competition); 98% at ERK3 (ERK3, compound concentration 10 uM, read-out: Percent Competition); 75% at IRAK3 (IRAK3, compound concentration 10 uM, read-out: Percent Competition); 91% at PHKG2 (PHKG2, compound concentration 10 uM, read-out: Percent Competition).
